# Columns and labels:
# Histone deacetylase 1 = Histone deacetylase 1 (Homo sapiens, UniProt Q13547); experiment: Inhibition of HDAC1 (unknown origin)
# [1] = target: T1, Protein deacetylase HDAC6 (Homo sapiens, UniProt Q9UBN7); experiment: Inhibition of HDAC6 (unknown origin)
# T1 sequence (Q9UBN7 whole entry): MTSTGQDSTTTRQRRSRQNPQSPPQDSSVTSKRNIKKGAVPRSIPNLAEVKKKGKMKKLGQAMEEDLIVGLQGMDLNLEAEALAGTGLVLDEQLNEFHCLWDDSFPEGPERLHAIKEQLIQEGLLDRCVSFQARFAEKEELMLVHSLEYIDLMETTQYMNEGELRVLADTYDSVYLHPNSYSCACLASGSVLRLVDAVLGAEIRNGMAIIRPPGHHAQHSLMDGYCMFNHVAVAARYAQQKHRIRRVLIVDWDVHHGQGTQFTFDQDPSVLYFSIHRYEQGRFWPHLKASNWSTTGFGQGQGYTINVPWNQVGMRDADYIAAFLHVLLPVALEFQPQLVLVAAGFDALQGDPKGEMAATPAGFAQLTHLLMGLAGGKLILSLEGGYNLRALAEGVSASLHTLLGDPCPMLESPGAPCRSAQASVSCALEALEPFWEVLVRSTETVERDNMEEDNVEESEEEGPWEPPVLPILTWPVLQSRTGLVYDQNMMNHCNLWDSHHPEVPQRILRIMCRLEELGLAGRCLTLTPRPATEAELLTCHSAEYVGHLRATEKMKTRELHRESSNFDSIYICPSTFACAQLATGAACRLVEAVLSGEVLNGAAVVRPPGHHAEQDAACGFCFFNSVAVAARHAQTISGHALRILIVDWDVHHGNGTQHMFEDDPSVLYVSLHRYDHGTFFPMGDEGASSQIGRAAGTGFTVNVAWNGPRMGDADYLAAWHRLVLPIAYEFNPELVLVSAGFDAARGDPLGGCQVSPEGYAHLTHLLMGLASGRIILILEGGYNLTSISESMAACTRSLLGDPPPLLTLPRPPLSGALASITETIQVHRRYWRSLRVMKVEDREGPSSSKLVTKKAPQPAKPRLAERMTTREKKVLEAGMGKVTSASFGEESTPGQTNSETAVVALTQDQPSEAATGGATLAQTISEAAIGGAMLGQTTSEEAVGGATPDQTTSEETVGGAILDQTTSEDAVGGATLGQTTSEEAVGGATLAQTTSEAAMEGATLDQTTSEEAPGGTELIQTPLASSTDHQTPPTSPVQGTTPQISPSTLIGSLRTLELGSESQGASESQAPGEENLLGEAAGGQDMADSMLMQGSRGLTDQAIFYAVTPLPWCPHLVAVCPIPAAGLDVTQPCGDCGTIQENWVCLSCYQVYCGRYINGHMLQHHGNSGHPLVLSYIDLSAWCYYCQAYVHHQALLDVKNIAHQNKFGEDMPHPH
# Sequence of Histone deacetylase 1 (Q13547 whole entry): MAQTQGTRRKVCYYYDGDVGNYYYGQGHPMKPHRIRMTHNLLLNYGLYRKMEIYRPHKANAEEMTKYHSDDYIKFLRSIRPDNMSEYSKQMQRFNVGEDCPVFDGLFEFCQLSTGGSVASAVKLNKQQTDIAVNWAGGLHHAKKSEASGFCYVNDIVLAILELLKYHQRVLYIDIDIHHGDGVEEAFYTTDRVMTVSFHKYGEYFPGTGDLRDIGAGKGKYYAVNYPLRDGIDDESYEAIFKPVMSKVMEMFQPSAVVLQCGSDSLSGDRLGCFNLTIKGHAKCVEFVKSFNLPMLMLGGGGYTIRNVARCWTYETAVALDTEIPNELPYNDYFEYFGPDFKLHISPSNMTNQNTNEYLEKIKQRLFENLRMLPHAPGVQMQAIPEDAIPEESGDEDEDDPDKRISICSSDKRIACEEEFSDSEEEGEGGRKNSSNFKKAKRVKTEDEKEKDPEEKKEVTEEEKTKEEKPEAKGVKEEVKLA
IC50 (Histone deacetylase 1),IC50 [1],Structure (SMILES)
9.5 µM,1.12 µM,CCCNc1ccc2c3c(cccc13)C(=O)N(CCCC(=O)NO)C2=O
0.28 µM,0.012 µM,O=C(CCCCCN1C(=O)c2cccc3c(OCc4ccc(C(F)(F)F)cc4)ccc(c23)C1=O)NO

# Source: ChEMBL document CHEMBL4834461, “Intracellular fluorescence competition assay for inhibitor engagement of histone deacetylase” (Bioorg Med Chem Lett, 2021)
